Our source for the IC50 values is patent publication US20230012570A1, “BICYCLIC COMPOUND USED AS SELECTIVE ANDROGEN RECEPTOR MODULATOR” (MEDSHINE DISCOVERY INC., priority 2019, published 2023).

pIC50: −log10 of the molar value.

The target in the test is T1, CYP2D6 (Homo sapiens, UniProt P10635).
T1 construct: Mixed human liver microsomes (HLM) were purchased from Corning Inc; tissue Corning Inc. or XenoTech, LLC. or other suppliers; host or cells: pooled human liver microsomes
The test is described as follows: Human liver microsomal CYP inhibition experiment, CYP2D6. It counts as in vitro ADME. Here is the method: Experiment Embodiment 4: Human Liver Microsomal CYP Inhibition Experiment
The inhibitory effects of the test compound 3A and VK5211 on the activities of human liver microsomal cytochrome P450 isozymes (CYP1A2, CYP2C9, CYP2C19, CYP2D6 and CYP3A4) were determined.
Mixed human liver microsomes (HLM) were purchased from Corning Inc. (Steuben, New York, USA) or XenoTech, LLC. (Lenexa, Kans., USA) or other suppliers, and were stored at a temperature below −60° C. before use.
First, the test compound (10.0 mM) was gradient diluted to prepare working solution (100×final concentration), and the concentrations of the working solution were: 5.00, 1.50, 0.500, 0.150, 0.0500, 0.0150, 0.00500 mM, and a working solution of each positive inhibitor of P450 isozymes (CYP1A2, CYP2C9, CYP2C19, CYP2D6, and CYP3A4) and a specific substrate mixture thereof (5 in 1) were prepared at the same time; human liver microsomes stored in a refrigerator at a temperature lower than −60° C. were put on ice to thaw, and when all the human liver microsomes were dissolved, the microsomes were diluted with potassium phosphate buffer (PB) to prepare a working solution of a certain concentration (0.253 mg/mL). […] The concentration of metabolites produced by the probe substrate in the sample was determined by liquid chromatography-tandem mass spectrometry (LC-MS/MS) method. […]

T1 sequence (P10635 whole entry): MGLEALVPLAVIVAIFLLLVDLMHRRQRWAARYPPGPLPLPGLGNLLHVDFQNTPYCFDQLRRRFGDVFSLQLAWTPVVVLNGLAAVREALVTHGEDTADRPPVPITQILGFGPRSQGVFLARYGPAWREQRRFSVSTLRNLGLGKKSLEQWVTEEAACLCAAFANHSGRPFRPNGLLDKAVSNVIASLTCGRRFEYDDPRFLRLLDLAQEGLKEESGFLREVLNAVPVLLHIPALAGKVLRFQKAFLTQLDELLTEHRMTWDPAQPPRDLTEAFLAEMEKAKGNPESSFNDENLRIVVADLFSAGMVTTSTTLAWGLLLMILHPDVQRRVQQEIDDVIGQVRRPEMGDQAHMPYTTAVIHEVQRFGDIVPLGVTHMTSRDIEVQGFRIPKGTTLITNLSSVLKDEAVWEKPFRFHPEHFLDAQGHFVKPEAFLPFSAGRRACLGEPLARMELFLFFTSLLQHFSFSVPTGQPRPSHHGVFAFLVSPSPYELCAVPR

In turn, `N#Cc1ccc(N2CC3CC3C2C(O)C(F)(F)F)cc1Cl` (single isomer, unassigned) [Compound 3A] had a pIC50 of less than 4.30.
